Measurements taken from the NIST ThermoML archive (doi:10.1016/j.jct.2018.02.022).
Values joined by “and” are separate entries in the source; they are usually repeats but may differ in a detail not shown here. Equal entries are not always repeated.

Experiment: xn = mol fraction of the nth substance listed
Conditions: 293.15 K, 92.3 kPa, Liquid; for viscosity: Concentric cylinders viscometry; for speed of sound: Frequency=3 MHz, Single path-length method; for mass density: Vibrating tube method

CCO [ethanol] + O
Conditions	mass density	speed of sound [m/s]	viscosity [mPa·s]
x1 = 0.0024	997.039 kg/m3	1487.7	–
x1 = 0.0201	989.54 kg/m3	–	1.247
x1 = 0.0202	989.382 kg/m3	1522.5	–
x1 = 0.0295	985.977 kg/m3	1540	–
x1 = 0.0366	983.574 kg/m3	1553	–
x1 = 0.0408	982.27 kg/m3	–	1.529
x1 = 0.0497	979.54 kg/m3	–	1.648
x1 = 0.0513	978.913 kg/m3	1578	–
x1 = 0.06	976.51 kg/m3 and 976.452 kg/m3	1590.8	1.821
x1 = 0.0707	973.538 kg/m3	1604.2	–
x1 = 0.0796	971.24 kg/m3	–	2.045
x1 = 0.0801	971.049 kg/m3	1613.8	–
x1 = 0.0904	968.313 kg/m3	1621.5	–
x1 = 0.0997	965.87 kg/m3	1625.7	–
x1 = 0.1004	963.75 kg/m3	–	2.311
x1 = 0.1294	957.918 kg/m3	1623.8	–
x1 = 0.1497	952.184 kg/m3	1611.9	–
x1 = 0.1499	951.92 kg/m3	–	2.72
x1 = 0.1984	935.19 kg/m3	–	2.857
x1 = 0.2008	937.088 kg/m3	1566.6	–
x1 = 0.2499	922.7 kg/m3	–	2.864
x1 = 0.2503	922.612 kg/m3	1520.2	–
x1 = 0.2998	908.897 kg/m3	1478.2	–
x1 = 0.3016	908.77 kg/m3	–	2.793
x1 = 0.3499	896.37 kg/m3	–	2.681
x1 = 0.3507	895.841 kg/m3	1440.4	–
x1 = 0.399	884.54 kg/m3	–	2.55
x1 = 0.3992	884.433 kg/m3	1408.9	–
x1 = 0.4495	873.57 kg/m3	–	2.405
x1 = 0.4514	873.258 kg/m3	1379	–
x1 = 0.4989	864.28 kg/m3	–	2.291
x1 = 0.5002	863.248 kg/m3	1353.5	–
x1 = 0.5494	854.117 kg/m3	1330.4	–
x1 = 0.5495	854.95 kg/m3	–	2.177
x1 = 0.6018	845.002 kg/m3	1307.8	–
x1 = 0.6067	844.7 kg/m3	–	1.997
x1 = 0.6503	837.27 kg/m3 and 837.196 kg/m3	1288.5	1.895
x1 = 0.6956	830.42 kg/m3	–	1.788
x1 = 0.7006	829.434 kg/m3	1269.1	–
x1 = 0.7355	824.262 kg/m3	1256	–
x1 = 0.75	822.4 kg/m3	–	1.68
x1 = 0.7843	817.86 kg/m3	–	1.612
x1 = 0.7965	815.831 kg/m3	1234.1	–
x1 = 0.8433	809.567 kg/m3	1217.4	–
x1 = 0.8475	809.97 kg/m3	–	1.518
x1 = 0.8864	804.22 kg/m3	–	1.42
x1 = 0.892	803.132 kg/m3	1199.7	–
x1 = 0.9093	800.938 kg/m3	1193.5	–
x1 = 0.9207	799.51 kg/m3	1189.5	–
x1 = 0.929	798.49 kg/m3	–	1.341
x1 = 0.9307	798.225 kg/m3	1185.8	–
x1 = 0.9398	797.133 kg/m3	1182.6	–
x1 = 0.9483	796.043 kg/m3	1179.4	–
x1 = 0.9603	794.596 kg/m3	1175.3	–
x1 = 0.9702	793.374 kg/m3	1171.7	–
x1 = 0.9801	792.038 kg/m3	1168.5	–
x1 = 0.9895	791.076 kg/m3	1165	–
x1 = 1	789.547 kg/m3	1160.7	1.202
